Patent US10334829B2, “IMiD screening methods IMiD-sensitive cells with mutant CRBN” (THE BROAD INSTITUTE, INC., priority 2013, dated 2019)
“Also recorded” adds a separate entry of the source. Residues, ends and D or L forms follow the SMILES beside them. *: point of attachment. Cbz = O=C(OCc1ccccc1)*

Key:
IRF4 = IRF4 protein and mRNA levels in MM1S cells; assay type: cell-based, human
From the text: FIG. 14E is a graph showing IRF4 RNA expression levels after IKZF3 knockdown.

CSNK1A1 [1] = assay: RQ-PCR of CSNK1A1 mRNA in human cells; assay type: cell-based
Method: Relative expression levels were calculated using the ΔΔCT method.

RAB28 = target: T1, RAB28 (Homo sapiens, UniProt P51157); assay: ORF-firefly luciferase reporter assay in 293T cells; assay type: cell-based; settings: 1 μM lenalidomide, 24 hours
T1 construct: expressed in transfected cells; host or cells: 293T
Method: The cDNAs of candidate genes, fused to firefly luciferase (FFluc), were expressed in 293T cells.
The luciferase reporter plasmid CMV-IRES-RenillaLUC-IRES-Gateway-FireflyLUC (11) was a kind gift from William G. Kaelin (Dana-Farber Cancer Institute). Cloning of cDNAs was performed using Gateway LR reaction (invitrogen). […] After an additional 24 hours, dual luciferase assays were performed using the Dual-Glo Luciferase Assay System (Promega) according to the manufacturer's protocol.

CBR1 = target: T2, CBR1 (Homo sapiens, UniProt P16152); assay: CBR1 biochemical assays
T2 sequence (P16152 1-277): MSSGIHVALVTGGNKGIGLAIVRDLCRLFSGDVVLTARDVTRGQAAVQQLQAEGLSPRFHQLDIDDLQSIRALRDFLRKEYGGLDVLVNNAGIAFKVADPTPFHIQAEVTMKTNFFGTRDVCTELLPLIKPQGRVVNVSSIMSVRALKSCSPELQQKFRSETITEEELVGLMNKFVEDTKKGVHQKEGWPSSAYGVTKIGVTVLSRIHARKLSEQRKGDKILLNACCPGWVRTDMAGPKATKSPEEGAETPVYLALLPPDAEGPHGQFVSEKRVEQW

CSNK1A1 [2] = assay: Immunoblot of CSNK1A1 in murine Baf3 and primary murine AML cells, with or without expressed CRBN variants; assay type: cell-based, mouse
Method: CSNK1A1 protein levels were assessed by immunoblot. […] Non-conserved amino acids are indicated by red bars.
Variants of human and mouse CRBN were cloned into a modified pRSF91 backbone to generate SFFV-CRBN-IRES-GFP-T2A-Puro retroviral constructs. 200,000 Ba/F3 cells were infected with ecotropic retrovirus in the presence of 2 μg/ml polybrene. After 24 hours, 1 μg/ml puromycin (Gibco) was added and cells were selected for 3-4 days. […] Protein lysates were harvested and immunoblotted for CK1α as described above.

IKZF1 and IKZF3 [3] = assay: Immunoblot of IKZF1 and IKZF3 protein in multiple myeloma cells; assay type: cell-based, human
Method: The FK2 antibody detects covalently linked ubiquitin.
Protein lysates were run on Tris-HCl, 1 mm Criterion™ Precast gels (Bio-Rad) at a constant voltage. Proteins were transferred onto Imobilon-P transfer membranes (Millipore) at a constant amperage. Before staining, blots were blocked in 5% BSA in TBST for 30 minutes.

IKZF3 = assay: Immunoblot of IKZF3 in T cells isolated from mCRBN^I391V knock-in or wild type mice; assay type: cell-based, mouse; settings: 0, 1 or 10 μM
From the text: IKZF3 protein levels was detected by immunoblot (IB). Actin was included as a protein loading control.

MM1S cells = assay: CellTiter-Glo luminescent cell viability assay; assay type: cell-based, human; settings: MM1S (sensitive) versus K562 (insensitive) cells, 6 days
Method: FIGS. 2A, 2B-1, 2B-2 and 2C are provided. […] For a biological replicate SILAC labeling for the two conditions was switched.
On the respective days, total cellular ATP content was assessed using CellTiter-Glo® Luminescent Cell Viability Assay (Promega) according to the protocol. Luminescence was assessed by a multimode detector DTX880 (Beckman Coulter).

CSNK1A1 [4] = target: T3, CSNK1A1 (Homo sapiens, UniProt P48729+Q96SW2); assay: Immunoblot of CSNK1A1 (CK1α) protein in human cell lines; assay type: cell-based; settings: KG-1 cells, 6 hours
T3 construct: endogenous in cells; host or cells: KG-1
Method: Protein lysates were run on Tris-HCl, 1 mm Criterion™ Precast gels (Bio-Rad) or NuPAGE Bis-Tris gels (Novex) gels at a constant voltage. Proteins were transferred onto Immobilon-P transfer membranes (Millipore) at a constant amperage. Before staining with primary antibodies, blots were blocked in 5% non-fat dry milk (Santa Cruz) or BSA in TBST for 30 minutes.
Secondary antibodies were HRP conjugated Bovine anti-Goat (Jackson ImmunoResearch) and HRP conjugated donkey anti-rabbit (GE Healthcare). Supersignal chemi-luminescent substrate was used for detection. For re-probing, blots were stripped in Restore Western Blot Stripping Buffer (Thermo Scientific), activated in methanol, and re-blocked.

IKZF1 and IKZF3 [5] = assay: ORF-firefly luciferase reporter assay in 293T cells; assay type: cell-based, human; settings: 1 μM MLN-4924

T3 sequence (P48729 whole entry): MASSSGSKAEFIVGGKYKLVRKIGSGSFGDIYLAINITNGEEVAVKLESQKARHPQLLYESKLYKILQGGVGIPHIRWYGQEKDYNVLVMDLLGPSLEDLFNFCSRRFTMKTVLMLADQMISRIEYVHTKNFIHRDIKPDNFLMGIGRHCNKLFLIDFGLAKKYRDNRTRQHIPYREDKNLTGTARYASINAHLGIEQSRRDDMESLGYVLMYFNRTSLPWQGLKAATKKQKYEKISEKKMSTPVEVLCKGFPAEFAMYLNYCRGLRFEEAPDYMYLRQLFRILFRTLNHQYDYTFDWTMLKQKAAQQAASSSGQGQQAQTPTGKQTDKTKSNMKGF
T3 sequence (Q96SW2 whole entry): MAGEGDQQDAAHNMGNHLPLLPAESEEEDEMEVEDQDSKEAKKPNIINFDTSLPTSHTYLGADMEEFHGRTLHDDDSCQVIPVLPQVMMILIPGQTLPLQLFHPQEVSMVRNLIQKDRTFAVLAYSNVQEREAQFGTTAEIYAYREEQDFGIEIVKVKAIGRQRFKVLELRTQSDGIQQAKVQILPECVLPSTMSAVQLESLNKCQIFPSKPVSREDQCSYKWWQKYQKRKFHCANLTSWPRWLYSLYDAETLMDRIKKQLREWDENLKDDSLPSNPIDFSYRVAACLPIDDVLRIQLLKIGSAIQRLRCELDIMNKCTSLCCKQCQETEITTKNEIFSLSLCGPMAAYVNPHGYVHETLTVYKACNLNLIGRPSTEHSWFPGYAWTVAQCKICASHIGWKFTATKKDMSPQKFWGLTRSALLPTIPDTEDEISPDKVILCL
T3 sequence (Q16531 whole entry partner): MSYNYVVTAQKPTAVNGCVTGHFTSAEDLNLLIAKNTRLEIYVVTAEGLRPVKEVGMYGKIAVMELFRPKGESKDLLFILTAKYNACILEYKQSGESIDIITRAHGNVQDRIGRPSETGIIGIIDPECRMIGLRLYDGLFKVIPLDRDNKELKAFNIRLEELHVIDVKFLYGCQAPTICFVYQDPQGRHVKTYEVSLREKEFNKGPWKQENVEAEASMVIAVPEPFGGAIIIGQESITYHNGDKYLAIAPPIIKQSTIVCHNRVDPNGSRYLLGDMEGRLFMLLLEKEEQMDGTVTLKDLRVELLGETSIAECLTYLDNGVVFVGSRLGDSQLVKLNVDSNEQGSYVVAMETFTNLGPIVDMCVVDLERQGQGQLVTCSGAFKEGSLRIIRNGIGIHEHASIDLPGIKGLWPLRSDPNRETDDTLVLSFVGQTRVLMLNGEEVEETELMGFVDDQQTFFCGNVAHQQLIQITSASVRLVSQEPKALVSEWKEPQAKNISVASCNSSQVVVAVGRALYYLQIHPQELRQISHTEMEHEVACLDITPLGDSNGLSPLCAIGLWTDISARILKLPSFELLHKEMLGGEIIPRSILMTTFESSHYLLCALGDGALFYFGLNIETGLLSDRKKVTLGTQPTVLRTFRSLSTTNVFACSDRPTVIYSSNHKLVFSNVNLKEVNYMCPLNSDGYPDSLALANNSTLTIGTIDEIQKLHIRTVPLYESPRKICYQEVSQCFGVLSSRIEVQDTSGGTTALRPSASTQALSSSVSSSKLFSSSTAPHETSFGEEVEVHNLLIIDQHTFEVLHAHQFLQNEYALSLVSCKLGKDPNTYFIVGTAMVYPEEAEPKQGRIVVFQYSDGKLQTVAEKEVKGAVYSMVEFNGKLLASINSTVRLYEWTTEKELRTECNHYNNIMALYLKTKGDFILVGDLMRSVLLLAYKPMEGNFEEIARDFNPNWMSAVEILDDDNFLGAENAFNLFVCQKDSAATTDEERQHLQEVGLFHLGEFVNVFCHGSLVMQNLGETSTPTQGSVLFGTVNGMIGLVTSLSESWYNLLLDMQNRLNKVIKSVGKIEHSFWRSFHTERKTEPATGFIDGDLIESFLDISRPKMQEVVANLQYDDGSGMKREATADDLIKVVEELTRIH

What does the source list for `Nc1cccc2c1CN(C1CCC(=O)NC1=O)C2=O` (stereo not drawn) [lenalidomide]?
IRF4 levels in proteomic analysis (IRF4; 12 hours): only slightly decreased; IRF4 mRNA and protein (IRF4; 24 hours and longer): decreased expression of IRF4; also recorded: significant decrease of IRF4 mRNA and protein; CSNK1A1 mRNA / RNA expression (CSNK1A1 [1]): No significant change; also recorded: did not alter CSNK1A1 mRNA levels; Luciferase level of FFluc fused to RAB28 (RAB28): not altered; Inhibition of CBR1 (CBR1): did not interact with CBR1 in direct binding assays or inhibit CBR1; CSNK1A1 degradation in Baf3 cells expressing mCRBN^I391V (CSNK1A1 [2]): conferred sensitivity to lenalidomide-induced degradation of CSNK1A1; CSNK1A1 protein levels in murine cells over-expressing human CRBN (CSNK1A1 [2]): sufficient to confer lenalidomide sensitivity to CSNK1A1; also recorded: reduced CSNK1A1 levels; also recorded: resulted in a decrease of CSNK1A1 protein levels; CSNK1A1 protein levels in murine Baf3 cells or primary murine (MLL-AF9) leukemia cells (CSNK1A1 [2]; unmodified cells, 24 hours): No change; also recorded: did not decrease Csnk1a1 protein levels; Degradation of IKZF1 and IKZF3 with CRBN mutant that does not bind lenalidomide (IKZF1 and IKZF3 [3]): abrogated degradation of IKZF1 and IKZF3; IKZF3 degradation in T cells from wild type mice (IKZF3): No IKZF3 degradation was observed

How did the “Biological activity / growth inhibition compared with lenalidomide” value (MM1S cells) turn out when `CCCCNC(=O)CCCNc1cccc2c1CN(C1CCC(=O)NC1=O)C2=O` (stereo not drawn) [lenalidomide derivative, N-butyl-4-((2-(2,6-dioxopiperidin-3-yl)-1-oxoisoindolin-4-yl)amino)butanamide] was run?
The value was “retained the biological activity of lenalidomide, including selective growth inhibition of multiple myeloma cells”.

With `CC(C)C[C@@H](C=O)NC(=O)[C@H](CC(C)C)NC(=O)[C@H](CC(C)C)NC(=O)OCc1ccccc1` [MG132] (Cbz-Leu-Leu-Leu-aldehyde) as the compound, how does the “Effect on lenalidomide-induced decrease in CSNK1A1 protein levels” value (CSNK1A1 [4]) read?
The value was “abrogated”.

`NS(=O)(=O)OC[C@@H]1C[C@@H](n2ccc3c(N[C@H]4CCc5ccccc54)ncnc32)C[C@@H]1O` [MLN-4924] was tested. Which “Effect on lenalidomide-induced decrease of FFluc-fused IKZF3” value (IKZF1 and IKZF3 [5]) did it give?
The value was “prevented the lenalidomide-induced decrease”.

What about the “Effect on lenalidomide-induced decrease of endogenous IKZF1 and IKZF3” value (IKZF1 and IKZF3 [3]; MM cells, 1 μM MLN-4924) of the same compound?
Its value is “prevented the lenalidomide-induced decrease”.

What about the “Effect on lenalidomide-induced decrease in CSNK1A1 protein levels” value (CSNK1A1 [4]) of the same compound?
The value was “abrogated”.
